Measurements as given in patent US12465603B2, “Phthalazinone based modulators for the treatment of disease” (Soley Therapeutics, Inc., priority 2022, dated 2025).

Legend:
[1] = tested on: PA1 (ECACC, 90013101) cells; assay: Cell viability assay (Cell Titre Glo, 72 hours) in PA1 cells; assay type: cell-based; conditions: Homo sapiens, PA-1
Method: (§1) Example 31: Cell Viability Assays
(§2) Phthalazinone based modulators as described herein were dispensed into 384 well CulturPlates™ (PerkinElmer) using Echo 555 acoustic dispensing in 10-point dose response curves at a final top concentration of 30 μM following a 1 in 3 dilution series. A2058 (ATCC, CRL-11147) or PA1 (ECACC, 90013101) cells were added directly to a compound at a density of 5000 cells per well in a final volume of 50 μL and incubated for 72 hours at 37° C., 5% CO2. Viability was assessed using Cell Titre Glo® (Promega) according to the manufacturer's instructions (25 μL per well) and IC50 curves were generated for each inhibitor using IDBS ActivityBase data analysis software.

[2] = tested on: A2058 (ATCC, CRL-11147) cells; assay: Cell viability assay (Cell Titre Glo, 72 hours) in A2058 cells; assay type: cell-based; conditions: Homo sapiens
Method: as §1, §2

SMILES	IC50 [1] [µM]	IC50 [2] [µM]
COc1ccc(C#N)cc1N1CCN(C(=O)c2nn(C)c(=O)c3ccccc23)CC1 [Compound 70]	≤ 1	≤ 1
Cn1cc(C(=O)N2CCN(c3ccccc3)CC2)c2ccccc2c1=O [Compound 1, 2-methyl-4-(4-phenylpiperazine-1-carbonyl)isoquinolin-1-one]	1 to 10	1 to 10
Cn1nc(C(=O)N2CCN(c3cncc(Cl)c3)CC2)c2cc(F)ccc2c1=O [Compound 165]	1 to 10	1 to 10
Cn1nc(C(=O)N2CCN(c3cc(F)cc(Cl)c3)CC2)c2ccccc2c1=O [Compound 45]	≤ 1	≤ 1
Cn1nc(C(=O)N2CCN(c3cc(F)cc(OC(F)F)c3)CC2)c2ccccc2c1=O [Compound 198]	≤ 1	≤ 1
Cn1nc(C(=O)N2CCC(c3ccccc3)CC2)c2ccccc2c1=O [Compound 2]	1 to 10	10 to 20
Cn1nc(C(=O)N2CCN(c3ccccc3C3CC3)CC2)c2ccncc2c1=O [Compound 181]	≤ 1	≤ 1
COc1cc(F)c(F)cc1N1CCN(C(=O)c2nn(C)c(=O)c3ccccc23)CC1 [Compound 56]	≤ 1	≤ 1
COc1cc(C#N)cc(N2CCN(C(=O)c3nn(C)c(=O)c4ccc(F)cc34)CC2)c1 [Compound 213]	≤ 1	≤ 1
COc1cnccc1N1CCN(C(=O)c2nn(C)c(=O)c3ccccc23)CC1 [Compound 15]	≤ 1	1 to 10
CCOc1ccc(F)cc1N1CCN(C(=O)c2nn(C)c(=O)c3ccccc23)CC1 [Compound 48]	≤ 1	≤ 1
COc1cccnc1N1CCN(C(=O)c2nn(C)c(=O)c3ccccc23)CC1 [Compound 14]	≤ 1	1 to 10
Cc1cncc(N2CCN(C(=O)c3nn(C)c(=O)c4ccc(F)cc34)CC2)c1 [Compound 162]	≤ 1	1 to 10
Cn1nc(C(=O)N2CCN(c3cc(C#N)ccc3Cl)CC2)c2ccccc2c1=O [Compound 229, 4-chloro-3-(4-(3-methyl-4-oxo-3,4-dihydrophthalazine-1-carbonyl)piperazin-1-yl)benzonitrile]	≤ 1	≤ 1
CCn1nc(C(=O)N2CCN(c3ccccc3C)CC2)c2ccccc2c1=O [Compound 102]	≤ 1	≤ 1
Cn1nc(C(=O)N2CCN(c3ccccc3)CC2)c2cc(F)ccc2c1=O [Compound 156, 6-fluoro-2-methyl-4-(4-phenylpiperazine-1-carbonyl)phthalazin-1-one]	1 to 10	1 to 10
Cc1ccncc1N1CCN(C(=O)c2nn(C)c(=O)c3ccc(F)cc23)CC1 [Compound 167]	≤ 1	≤ 1
CCn1nc(C(=O)N2CCN(c3ccc(F)c4c3CCO4)CC2)c2ccccc2c1=O [Compound 188]	≤ 1	≤ 1
Cn1nc(C(=O)N2CCN(c3cc(F)cc(C#N)c3)CC2)c2ccccc2c1=O [Compound 61, 3-fluoro-5-(4-(3-methyl-4-oxo-3,4-dihydrophthalazine-1-carbonyl)piperazin-1-yl)benzonitrile]	≤ 1	≤ 1
Cn1nc(C(=O)N2CCN(c3nccn4ccnc34)CC2)c2ccccc2c1=O [Compound 196]	> 20	> 20

SMILES	IC50 [1] [µM]	IC50 [2] [µM]
CCn1nc(C(=O)N2CCN(c3cc(Cl)cc(C#N)c3)CC2)c2cc(F)ccc2c1=O [Compound 237]	≤ 1	≤ 1
CC(C)c1cncc(N2CCN(C(=O)c3nn(C)c(=O)c4ccc(F)cc34)CC2)c1 [Compound 209]	10 to 20	10 to 20
CCn1nc(C(=O)N2CCN(c3cc(F)cc(C#N)c3)CC2)c2cc(F)ccc2c1=O [Compound 239]	≤ 1	≤ 1
O=C(c1nn(CC(F)(F)F)c(=O)c2ccccc12)N1CCN(c2ccccc2)CC1 [Compound 6]	> 20	> 20
CCn1nc(C(=O)N2CCN(c3ncccc3F)CC2)c2ccccc2c1=O [Compound 107]	> 20	> 20
Cn1nc(C(=O)N2CCN(c3cccc(C4CC4)c3)CC2)c2ccccc2c1=O [Compound 41]	≤ 1	≤ 1
Cn1nc(C(=O)N2CCN(c3cncc(C#N)c3)CC2)c2ccccc2c1=O [Compound 226]	> 20	> 20
CCn1nc(C(=O)N2CCN(c3cccc(C4CC4)c3)CC2)c2ccccc2c1=O [Compound 116, 4-(4-(3-cyclopropylphenyl)piperazine-1-carbonyl)-2-ethylphthalazin-1(2H)-one]	≤ 1	≤ 1
CCn1nc(C(=O)N2CCN(c3ncc(F)cc3C(F)(F)F)CC2)c2ccccc2c1=O [Compound 140]	1 to 10	1 to 10
Cn1nc(C(=O)N2CCN(c3nccc4occc34)CC2)c2ccccc2c1=O [Compound 195]	10 to 20	10 to 20
COc1cc(F)cc(N2CCN(C(=O)c3nn(C)c(=O)c4ccncc34)CC2)c1 [Compound 176]	≤ 1	≤ 1
Cn1nc(C(=O)N2CCN(c3cc(C#N)cc(C4CC4)c3)CC2)c2ccccc2c1=O [Compound 206]	≤ 1	≤ 1
CCn1nc(C(=O)N2CCN(c3ccccc3C#N)CC2)c2ccccc2c1=O [Compound 133]	10 to 20	> 20
CCn1nc(C(=O)N2CCN(c3cc(F)cc(C#N)c3)CC2)c2cnccc2c1=O [Compound 241, 3-(4-(2-ethyl-1-oxo-1,2-dihydropyrido[3,4-d]pyridazine-4-carbonyl)piperazin-1-yl)-5-fluorobenzonitrile]	≤ 1	≤ 1
Cn1nc(C(=O)N2CCN(c3cncc4c3OCC4)CC2)c2ccccc2c1=O [Compound 190]	≤ 1	≤ 1
Cn1nc(C(=O)N2CCN(c3ccc(C(F)(F)F)cc3)CC2)c2ccccc2c1=O [Compound 27]	1 to 10	1 to 10
Cc1ccc(C#N)cc1N1CCN(C(=O)c2nn(C)c(=O)c3ccc(F)cc23)CC1 [Compound 211]	≤ 1	≤ 1
Cn1nc(C(=O)N2CCN(c3cccc(Cl)c3)CC2)c2ccccc2c1=O [Compound 47]	≤ 1	≤ 1
Cn1nc(C(=O)N2CCN(c3ccncc3)CC2)c2ccccc2c1=O [Compound 28]	> 20	> 20
CCn1nc(C(=O)N2CCN(c3cccc(F)c3OC)CC2)c2ccccc2c1=O [Compound 138]	≤ 1	≤ 1

SMILES	IC50 [1] [µM]	IC50 [2] [µM]
CCn1nc(C(=O)N2CCN(c3cccc(C(F)(F)F)c3)CC2)c2ccccc2c1=O [Compound 81, 2-ethyl-4-(4-(3-(trifluoromethyl)phenyl)piperazine-1-carbonyl)phthalazin-1(2H)-one]	≤ 1	1 to 10
Cn1nc(C(=O)N2CCN(c3ncccc3C3CC3)CC2)c2ccccc2c1=O [Compound 17]	≤ 1	≤ 1
Cn1nc(C(=O)N2CCN(c3cc(F)cc(C#N)c3)CC2)c2cnccc2c1=O [Compound 220]	1 to 10	1 to 10
Cn1nc(C(=O)N2CCN(c3cc(C#N)ccc3C3CC3)CC2)c2ccccc2c1=O [Compound 62]	≤ 1	≤ 1
COc1ncc(C)cc1N1CCN(C(=O)c2nn(C)c(=O)c3ccccc23)CC1 [Compound 77]	1 to 10	1 to 10
COc1cccc(N2CCN(C(=O)c3nn(C)c(=O)c4cnccc34)CC2)c1 [Compound 172, 1-(4-(3-methoxyphenyl)piperazine-1-carbonyl)-3-methylpyrido[3,4-d]pyridazin-4(3H)-one]	1 to 10	1 to 10
CCn1nc(C(=O)N2CCN(c3cc(Cl)cc(C#N)c3)CC2)c2cnccc2c1=O [Compound 244]	≤ 1	≤ 1
Cn1nc(C(=O)N2CCN(c3cc(F)cc(C#N)c3)CC2)c2cc(F)ccc2c1=O [Compound 212]	≤ 1	≤ 1
Cn1nc(C(=O)N2CCN(c3ccccc3F)CC2)c2ccccc2c1=O [Compound 30]	1 to 10	1 to 10
Cn1nc(C(=O)N2CCN(c3cc(C#N)cc(OC(F)F)c3)CC2)c2ccccc2c1=O [Compound 199]	≤ 1	≤ 1
CCn1nc(C(=O)N2CCN(c3cncc(C)c3)CC2)c2cc(F)ccc2c1=O [Compound 238]	≤ 1	≤ 1
CCn1nc(C(=O)N2CCN(c3cccc(F)c3)CC2)c2ccccc2c1=O [Compound 146]	≤ 1	≤ 1
CCn1nc(C(=O)N2CCN(c3ccc(OCCOC)cc3Cl)CC2)c2ccccc2c1=O [Compound 127]	> 20	> 20
Cc1cc(C)cc(N2CCN(C(=O)c3nn(C)c(=O)c4ccncc34)CC2)c1 [Compound 215]	≤ 1	1 to 10
Cc1cc(C#N)cc(N2CCN(C(=O)c3nn(C)c(=O)c4ccncc34)CC2)c1 [Compound 214]	≤ 1	1 to 10
CCn1nc(C(=O)N2CCN(c3cnccc3OC)CC2)c2cnccc2c1=O [Compound 243]	≤ 1	1 to 10
CCn1nc(C(=O)N2CCN(c3ccc(OC)nn3)CC2)c2ccccc2c1=O [Compound 111]	> 20	> 20
COc1cc(F)cc(N2CCN(C(=O)c3nn(C)c(=O)c4ccccc34)CC2)c1 [Compound 34, 4-(4-(3-fluoro-5-methoxyphenyl)piperazine-1-carbonyl)-2-methylphthalazin-1(2H)-one]	≤ 1	≤ 1
